Laboratory results from ChEMBL document CHEMBL1777676, “3-substitued indoles: one-pot synthesis and evaluation of anticancer and Src kinase inhibitory activities” (Bioorg Med Chem Lett, 2011).

Tests used:
[1] = target: Proto-oncogene tyrosine-protein kinase Src (Homo sapiens, UniProt P12931); assay: Inhibition of c-Src using AEEEIYGEFEAKKKK substrate by fluorescence intensity assay
SK-OV-3 = assay: Anticancer activity against human SKOV3 cells assessed as inhibition of cell proliferation at 50 uM after 72 hrs relative to control; format: functional; details: SK-OV-3, 72 h
HT-29 = assay: Anticancer activity against human HT-29 cells assessed as inhibition of cell proliferation at 50 uM after 72 hrs relative to control; format: functional; details: HT-29, 72 h

Proto-oncogene tyrosine-protein kinase Src, sequence (P12931 2-536 limits assumed): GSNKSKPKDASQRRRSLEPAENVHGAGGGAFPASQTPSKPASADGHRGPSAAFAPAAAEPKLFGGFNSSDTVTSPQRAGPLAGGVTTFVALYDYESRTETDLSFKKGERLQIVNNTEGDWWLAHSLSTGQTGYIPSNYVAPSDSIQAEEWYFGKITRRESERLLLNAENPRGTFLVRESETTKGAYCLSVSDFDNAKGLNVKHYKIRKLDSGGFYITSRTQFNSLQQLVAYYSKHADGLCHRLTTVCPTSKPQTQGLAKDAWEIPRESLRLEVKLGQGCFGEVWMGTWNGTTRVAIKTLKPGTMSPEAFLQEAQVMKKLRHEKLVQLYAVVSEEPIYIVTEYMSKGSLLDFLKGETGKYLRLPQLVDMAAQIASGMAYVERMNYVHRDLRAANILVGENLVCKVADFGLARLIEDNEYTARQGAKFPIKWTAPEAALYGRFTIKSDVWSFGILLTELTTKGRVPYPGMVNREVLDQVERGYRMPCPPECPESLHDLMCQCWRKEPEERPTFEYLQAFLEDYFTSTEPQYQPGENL

Compound	IC50 [1] [µM]	inhibition at 50 µM (SK-OV-3) [%]	inhibition at 50 µM (HT-29) [%]
Cc1ccc(C(c2c[nH]c3ccc(Br)cc23)N(C)c2ccccc2)cc1 (configuration not stated)	> 150	70	70
CN(c1ccccc1)C(c1ccc(O)cc1)c1c[nH]c2ccccc12 (configuration not stated)	> 150		
COc1ccc(C(c2c[nH]c3ccccc23)N(C)c2ccccc2)cc1 (configuration not stated)	> 150		
COc1ccc(C(c2c[nH]c3ccccc23)N(C)c2ccccc2)c(OC)c1 (configuration not stated)	> 150		
CN(c1ccccc1)C(c1ccc(Cl)cc1)c1c[nH]c2ccccc12 (configuration not stated)	> 150	72	
COc1cccc(C(c2c[nH]c3ccccc23)N(C)c2ccccc2)c1 (configuration not stated)	> 150		
CN(c1ccccc1)C(c1ccccc1)c1cn(C)c2ccccc12 (configuration not stated)	> 150		
COc1ccc2[nH]cc(C(c3ccc(C)cc3)N(C)c3ccccc3)c2c1 (configuration not stated)	> 150	70	70

Continued, in another order:

IC50 [1] [µM]	Compound	inhibition at 50 µM (SK-OV-3) [%]	inhibition at 50 µM (HT-29) [%]
> 150	CN(c1ccccc1)C(c1ccc(O)c(Br)c1)c1c[nH]c2ccccc12 (configuration not stated)		
87	COc1ccc2[nH]cc(C(c3ccc(Cl)cc3)N(C)c3ccccc3)c2c1 (configuration not stated)	77	
58.3	CN(c1ccccc1)C(c1cccc([N+](=O)[O-])c1)c1c[nH]c2ccccc12 (configuration not stated)		
106	COc1ccc(C(c2c[nH]c3ccc(Br)cc23)N(C)c2ccccc2)cc1 (configuration not stated)	70	70
98.3	CN(c1ccccc1)C(c1ccc(Cl)cc1)c1cn(C)c2ccccc12 (configuration not stated)		
100	COc1ccc(C(c2c[nH]c3ccc(OC)cc23)N(C)c2ccccc2)cc1 (configuration not stated)		
> 150	Cc1ccc(C(c2c[nH]c3ccccc23)N(C)c2ccccc2)cc1 (configuration not stated)		
71.6	CN(c1ccccc1)C(c1ccccc1)c1c[nH]c2ccc(Br)cc12 (configuration not stated)		
50.6	CN(c1ccccc1)C(c1ccccc1)c1c[nH]c2ccccc12 (configuration not stated)	55	
60.5	Cc1ccc(C(c2cn(C)c3ccccc23)N(C)c2ccccc2)cc1 (configuration not stated)		
